Values quoted from earlier work, collected in patent US12350279B2, “Nasal rinse compositions and methods” (Campbell Holding Company LLC, priority 2022, dated 2025).

Tests used:
[1] = animal models
[2] = system: allergic asthma animal model
[3] = system: animal models of chronic asthma

## C=C(C)[C@@H]1CCC(C)=C[C@H]1c1c(O)cc(CCCCC)cc1O [CBD, Cannabidiol]
[1]
  time to absorption after intranasal application: ≤ 10 min
[2]
  effect on inflammatory and remodeling process, airway hyperreactivity: reduced the inflammatory and remodeling process with decreased airway hyperreactivity
[3]
  effect on cytokines: reduce relevant cytokines
